Data from patent US20130045983A1, “HSP90 INHIBITORS FOR THERAPEUTIC TREATMENT” (Novartis AG, priority 2008, published 2013).

How the values were obtained:
Assay type in all cases: cell-based
A549 = assay: Cell proliferation assay, A549 (lung); details: Homo sapiens, 72 hours in presence of compound
Method: (§1) Seventeen cancer derived cell lines are used (GTL-16, N87, H1975, A549, H69, A2780, PC3, BT474, SKBR3, MCF-7, A375, MV4;11, K562, KM12L4A, H929, OPM-2 and KMS-11) to test the effect of (R)-2-amino-7-[2-(6-methoxy-pyridin-2-yl)-phenyl]-4-methyl-7,8-dihydro-6H-pyrido[4,3-d]pyrimidin-5-one. These cell lines cover the following 9 tumor types: Gastric, Lung, Ovarian, Prostate, Breast, Melanoma, Leukemia, Colon and Multiple myeloma. After division and medium change, cells from stock culture are seeded on cell plates and cultured for about 18 hours to allow cell growth and attachment before starting the assay. Then on the first day of the assay, (R)-2-amino-7-[2-(6-methoxy-pyridin-2-yl)-phenyl]-4-methyl-7,8-dihydro-6H-pyrido[4,3-d]pyrimidin-5-one is added to the medium at various concentrations. Cells are cultured up to 72 or 96 hours and cell proliferation is determined using commercially available cell proliferation kits.
(§2) Table 1 relates to the concentration in nM of (R)-2-amino-7-[2-(6-methoxy-pyridin-2-yl)-phenyl]-4-methyl-7,8-dihydro-6H-pyrido[4,3-d]pyrimidin-5-one which inhibits cell proliferation by 50% (IC50). […]

H69 = assay: Cell proliferation assay, H69 (lung); details: Homo sapiens, NCI-H69, 72 hours in presence of compound
Method: as §1, §2

H929 = assay: Cell proliferation assay, H929 (multiple myeloma); details: Homo sapiens, NCI-H929, 72 hours in presence of compound
Method: as §1, §2

CXF 1729 = assay: Clonogenic assay, CXF 1729; details: Homo sapiens, Colon, Papillary adenocarcinoma, soft agar, read-out: IC50 (colony formation)
Method: (§3) The anticancer activity of (R)-2-amino-7-[2-(6-methoxy-pyridin-2-yl)-phenyl]-4-methyl-7,8-dihydro-6H-pyrido[4,3-d]pyrimidin-5-one is evaluated in 30 human tumor xenografts in vitro using a clonogenic assay. In this assay, human cells derived from cancer patients are evaluated for the capacity of (R)-2-amino-7-[2-(6-methoxy-pyridin-2-yl)-phenyl]-4-methyl-7,8-dihydro-6H-pyrido[4,3-d]pyrimidin-5-one to inhibit the formation of 3 dimensional colonies. […] The tumor xenografts which have never been cultured in cell culture plastic dishes are isolated from nude mice. Tumor cell suspensions are prepared and incubated in 24 well plates containing layers of soft agar. Under these conditions a special subpopulation of cells selectively grows to colonies. (R)-2-amino-7-[2-(6-methoxy-pyridin-2-yl)-phenyl]-4-methyl-7,8-dihydro-6H-pyrido[4,3-d]pyrimidin-5one is tested in 6 concentrations up to 1000 nM. The tumor test panel comprises 1 to 10 models of 12 different human tumor types, which were bladder cancer, colon, gastric, non small cell lung (adeno, squamous cell, and large cell), small cell lung, mammary, ovary, and prostate cancer, as well as leukemia, lymphoma, melanoma, and sarcoma. Antitumor effects are recorded as inhibition of colony formation in relation to untreated controls. […]

CXF 243 = assay: Clonogenic assay, CXF 243; details: Homo sapiens, Colon, Adenocarcinoma, soft agar, read-out: IC50 (colony formation)
Method: as §3

CXF 214 = assay: Clonogenic assay, CXF 214; details: Homo sapiens, Stomach, Adenocarcinoma, soft agar, read-out: IC50 (colony formation)
Method: as §3

LYXF U937 = assay: Clonogenic assay, LYXF U937; details: Homo sapiens, U-937, Histiocytic lymphoma, soft agar, read-out: IC50 (colony formation)
Method: as §3

MAXF 1162 = assay: Clonogenic assay, MAXF 1162; details: Homo sapiens, Breast, invasive ductal carcinoma, soft agar, read-out: IC50 (colony formation)
Method: as §3

MAXF 1322 = assay: Clonogenic assay, MAXF 1322; details: Homo sapiens, Breast, Pap. adenocarcinoma, soft agar, read-out: IC50 (colony formation)
Method: as §3

MAXF 1384 = assay: Clonogenic assay, MAXF 1384; details: Homo sapiens, Breast, Adenocarcinoma, soft agar, read-out: IC50 (colony formation)
Method: as §3

MAXF 574 = assay: Clonogenic assay, MAXF 574; details: Homo sapiens, Breast, Carcinoma, soft agar, read-out: IC50 (colony formation)
Method: as §3

MAXF 583 = assay: Clonogenic assay, MAXF 583; details: Homo sapiens, Breast, Ductual adenocarcinoma, soft agar, read-out: IC50 (colony formation)
Method: as §3

MAXF 713 = assay: Clonogenic assay, MAXF 713; details: Homo sapiens, Breast, Adenocarcinoma, soft agar, read-out: IC50 (colony formation)
Method: as §3

MAXF 857 = assay: Clonogenic assay, MAXF 857; details: Homo sapiens, Breast, Invasive ductal carcinoma, soft agar, read-out: IC50 (colony formation)
Method: as §3

MEXF 1341 = assay: Clonogenic assay, MEXF 1341; details: Homo sapiens, Amelanotic melanoma, soft agar, read-out: IC50 (colony formation)
Method: as §3

MEXF 989 = assay: Clonogenic assay, MEXF 989; details: Homo sapiens, Amelanotic melanoma, soft agar, read-out: IC50 (colony formation)
Method: as §3

OVXF 1353 = assay: Clonogenic assay, OVXF 1353; details: Homo sapiens, Ovary, Adenocarcinoma, soft agar, read-out: IC50 (colony formation)
Method: as §3

PRXF MRIH1579 = assay: Clonogenic assay, PRXF MRIH1579; details: Homo sapiens, Prostate, Adenocarcinoma, soft agar, read-out: IC50 (colony formation)
Method: as §3

PRXF PC3M = assay: Clonogenic assay, PRXF PC3M; details: Homo sapiens, PC-3M, Prostate, Adenocarcinoma, metastatic, soft agar, read-out: IC50 (colony formation)
Method: as §3

GI50 (A549): 16 nM
GI50 (H929): 20 nM
IC50 (CXF 1729): 199 nM
IC50 (CXF 243): 44 nM
IC50 (CXF 214): > 1000 nM
IC50 (LYXF U937): 28 nM
IC50 (MAXF 1162): 6 nM
IC50 (MAXF 1322): 52 nM
IC50 (MAXF 1384): 14 nM
IC50 (MAXF 574): 316 nM
IC50 (MAXF 583): 24 nM
IC50 (MAXF 713): > 1000 nM
IC50 (MAXF 857): 12 nM
IC50 (MEXF 1341): > 1000 nM
IC50 (MEXF 989): 17 nM
IC50 (OVXF 1353): 53 nM
IC50 (PRXF MRIH1579): > 1000 nM
IC50 (PRXF PC3M): 276 nM
SMILES: COc1cccc(-c2ccccc2[C@H]2Cc3nc(N)nc(C)c3C(=O)N2)n1 [(R)-2-amino-7-[2-(6-methoxy-pyridin-2-yl)-phenyl]-4-methyl-7,8-dihydro-6H-pyrido[4,3-d]pyrimidin-5-one]
GI50 (H69): 37 nM
